{
  "source": "BindingDB's records for doi:10.1021/jm00076a021",
  "about": "(New York University, 1994)",
  "assay": "Binding affinity against sigma receptor in bovine cerebellum using 2.0 nM [3H]haloperidol in the presence of 25 nM unlabeled spiperone",
  "data": [
    {"smiles": "O=C(CCN1CC=C(c2ccc(Cl)cc2)CC1)c1ccccc1Cl", "note": "[1-(2-Chloro-phenyl)-3-[4-(4-chloro-phenyl)-3,6-dihydro-2H-pyridin-1-yl]-propan-1-one]", "values": [
      {"measurement": "IC50", "value": 0.105, "unit": "µM"}
    ]}
  ]
}
